In US20210147481A1, “PEPTIDE-BASED INHIBITORS OF MARK FAMILY PROTEINS” (Ohio Universtiy, priority 2017, published 2021):
Where two headings read alike, the source gives them in different places. Peptide text beside a SMILES is read from it. * marks the point of attachment. 5FAM = O=C1OC2(c3ccc(O)cc3Oc3cc(O)ccc32)c2ccc(C(=O)*)cc21

Assays:
[1] = test system: rat primary cortical neurons
MARK2 [2] = biological target: MARK2 (Homo sapiens, UniProt Q7KZI7); test: Antibody-linked fluorescence polarization assay of tR1 phosphorylation by MARK2; format: biochemical; conditions: 10 μM FlutR1, MARK2, ATP, antibody versus absence of MARK2, ATP, or antibody
MARK2 (Homo sapiens, UniProt Q7KZI7), sequence (Q7KZI7 whole entry): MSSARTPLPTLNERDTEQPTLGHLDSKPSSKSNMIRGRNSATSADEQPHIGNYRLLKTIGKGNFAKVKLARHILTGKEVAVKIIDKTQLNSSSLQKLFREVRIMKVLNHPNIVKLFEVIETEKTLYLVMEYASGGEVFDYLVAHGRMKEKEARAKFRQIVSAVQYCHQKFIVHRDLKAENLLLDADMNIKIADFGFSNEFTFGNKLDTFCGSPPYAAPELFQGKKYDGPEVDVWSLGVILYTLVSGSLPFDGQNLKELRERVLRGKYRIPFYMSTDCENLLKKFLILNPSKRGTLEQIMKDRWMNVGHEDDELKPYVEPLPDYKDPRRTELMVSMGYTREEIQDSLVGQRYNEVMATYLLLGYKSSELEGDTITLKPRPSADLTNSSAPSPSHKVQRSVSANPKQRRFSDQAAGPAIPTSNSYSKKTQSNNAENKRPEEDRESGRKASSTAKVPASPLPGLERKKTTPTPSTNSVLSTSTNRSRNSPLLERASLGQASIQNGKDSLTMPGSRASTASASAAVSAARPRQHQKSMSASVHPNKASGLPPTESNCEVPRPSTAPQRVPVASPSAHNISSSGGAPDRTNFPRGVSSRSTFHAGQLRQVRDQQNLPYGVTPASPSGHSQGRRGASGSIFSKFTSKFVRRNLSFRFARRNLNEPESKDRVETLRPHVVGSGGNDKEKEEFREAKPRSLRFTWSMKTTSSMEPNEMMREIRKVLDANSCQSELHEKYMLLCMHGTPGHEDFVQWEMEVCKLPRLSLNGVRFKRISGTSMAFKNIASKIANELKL
Method: The ability for MARK2 to phosphorylate tR1 in vitro was further validated by incubating ^FlutR1 peptides with MARK2 and ATP and monitoring the fluorescence polarization of the solution following addition of antibodies specific for hTau pSer262 (FIG. 6C). In these experiments, ^FlutR1 peptides and MARK2 were incubated with and without ATP for 60 minutes at 32° C. in phosphorylation buffer. Following incubation, antibodies specific for hTau pSer262 were added to the reaction and allowed to incubate for an additional 60 minutes at room temperature. Due to the slower tumbling rate of an antibody-linked (and presumably phosphorylated) ^FlutR1 peptide, it is believed that the fluorescence polarization of the phosphorylated tR1 peptide would be higher than that of its un-phosphorylated counterpart.
Analysis of the activity of MARK2 proteins was performed in 60-μL phosphorylation buffer (50 mM Tris-HCl, pH 8.0, 5 mM MgCl2, 2 mM EGTA, 0.5 mM DTT, 0.5 mM benzamidine HCl, 0.5 mM PMSF) containing 100 μM ATP, 10 μM of ^FlutR1, and 10 nM MARK2. The reaction mixture was incubated at 32° C. for 1 hour. […] Fluorescence polarization was then measured using a SpectraMax M5e multi-mode plate reader (Molecular Devices, Sunnyvale, Calif.) in 384-well plates (#3575, Corning, Corning, N.Y.). […]

MARK2 [3] = biological target: MARK2 (Rattus norvegicus, UniProt O08679); test: Immunofluorescence of PAO-induced MARK2-mediated tau Ser262 phosphorylation in neurons; format: cell-based
MARK2 (Rattus norvegicus, UniProt O08679), sequence (O08679 whole entry): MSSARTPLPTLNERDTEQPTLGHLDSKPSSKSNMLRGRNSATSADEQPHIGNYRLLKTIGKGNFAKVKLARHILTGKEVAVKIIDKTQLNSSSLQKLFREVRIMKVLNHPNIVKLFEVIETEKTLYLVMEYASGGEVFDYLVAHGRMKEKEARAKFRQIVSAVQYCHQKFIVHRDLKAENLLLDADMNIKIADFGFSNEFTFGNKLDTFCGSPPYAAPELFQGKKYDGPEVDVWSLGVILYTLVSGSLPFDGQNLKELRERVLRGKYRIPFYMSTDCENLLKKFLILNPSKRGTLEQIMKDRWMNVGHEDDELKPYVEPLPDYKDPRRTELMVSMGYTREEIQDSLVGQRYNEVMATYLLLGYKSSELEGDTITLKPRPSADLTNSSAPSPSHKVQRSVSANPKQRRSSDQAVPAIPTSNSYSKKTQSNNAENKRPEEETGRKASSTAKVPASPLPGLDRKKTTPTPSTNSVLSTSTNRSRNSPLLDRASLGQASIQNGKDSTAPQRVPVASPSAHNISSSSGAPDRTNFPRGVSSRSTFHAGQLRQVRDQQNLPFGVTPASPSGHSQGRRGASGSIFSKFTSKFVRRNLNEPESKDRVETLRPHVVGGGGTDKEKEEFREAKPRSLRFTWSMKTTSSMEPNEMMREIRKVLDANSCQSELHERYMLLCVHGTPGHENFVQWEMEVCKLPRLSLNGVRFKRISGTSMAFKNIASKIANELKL

CC[C@H](C)[C@H](NC(=O)[C@H](CCCCN)NC(=O)[C@H](CO)NC(=O)[C@H](CCCCN)NC(=O)[C@@H](NC(=O)[C@H](CC(N)=O)NC(=O)c1ccc2c(c1)C(=O)OC21c2ccc(O)cc2Oc2cc(O)ccc21)C(C)C)C(=O)NCC(=O)N[C@@H](CO)C(=O)N[C@H](C(=O)N[C@@H](CCC(=O)O)C(=O)N[C@@H](CC(N)=O)C(=O)N[C@@H](CC(C)C)C(=O)N[C@@H](CCCCN)C(N)=O)[C@@H](C)O [^FlutR1] (5FAM-NVKSKIGSTENLK-NH2)
intracellular uptake (fluorescence) ([1]; 10 μM FlutR1 alone, 4 hours): distinct fluorescent puncta within the cell body and neurites
intracellular distribution (fluorescence) ([1]; 10 μM FlutR1 with 50 nM Baf): no fluorescent puncta following treatment and diffuse green fluorescence within the cell soma
intracellular uptake (fluorescence) ([1]; 10 μM FlutR1 with 5 μM PAO): did not seem to affect the uptake
intracellular distribution (fluorescence) ([1]; 10 μM FlutR1 with 100 μM CLQ): significant loss of discrete fluorescent puncta
intracellular uptake (fluorescence) ([1]; 10 μM FlutR1 with 10 mM sodium azide): significant loss of fluorescent puncta within the cell body and neurites
fluorescence polarization after addition of hTau pSer262 antibody (MARK2 [2]): polarization to be highest in solutions containing all reaction components

CO/C1=C\C(C)=C\[C@@H](C)[C@@H](O)[C@@H](C)C/C(C)=C/C=C/[C@H](OC)[C@@H]([C@@H](C)[C@@H](O)[C@H](C)[C@@]2(O)C[C@@H](O)[C@H](C)[C@@H](C(C)C)O2)OC1=O [bafilomycin A1, reference compound]
effect of endosome disruptor alone on PAO-induced MARK2 mediated phosphorylation of tau (MARK2 [3]; without tR1, 5 μM PAO): Neither bafilomycin A1 nor chloroquine treatments alone affected

CCN(CC)CCCC(C)Nc1ccnc2cc(Cl)ccc12 (centres unmarked) [chloroquine, reference compound]
effect of endosome disruptor alone on PAO-induced MARK2 mediated phosphorylation of tau (MARK2 [3]): Neither bafilomycin A1 nor chloroquine treatments alone affected
